Reference: US8758816B2, “Compositions comprising azelastine and methods of use thereof” (priority 2004, dated 2014)
Structures can show the parent of a compound that is named as a salt.

Tested on: patients with seasonal allergic rhinitis (SAR)
Test: MP 428 study: individual symptom severity scores (runny nose, itchy nose, sneezing, congestion; 0-3 scale)
Type: in vivo, human
Conditions: Intent-to-Treat Population
Method: A two-week, randomized, double-blind study, which evaluated the effects of the co-administration of ASTELIN® (azelastine hydrochloride (HCl)) and FLONASE® (fluticasone propionate) compared to either product alone in patients with seasonal allergic rhinitis (SAR) was conducted during the 2006 Texas mountain cedar season. After a 5-day placebo lead-in period, 151 patients with moderate-to-severe allergic rhinitis symptoms were randomized to either: (1) (49 total patients) ASTELIN® (azelastine hydrochloride (HCl)) plus placebo saline nasal spray 2 sprays per nostril, 15 minutes apart, twice daily (AM & PM); (2) (50 total patients) FLONASE® (fluticasone propionate) plus placebo saline nasal spray, 2 sprays per nostril, 15 minutes apart, once daily (AM) and two sessions of placebo saline nasal spray, 2 sprays per nostril, 15 minutes apart (PM); or (3) (52 total patients) the co-administration of ASTELIN® (azelastine hydrochloride (HCl)) 2 sprays per nostril plus FLONASE® (fluticasone propionate) 2 sprays per nostril (AM), 15 minutes apart, and ASTELIN® (azelastine hydrochloride (HCl)) 2 sprays per nostril plus placebo saline nasal spray, 15 minutes apart, (PM) for a 2-week double-blind treatment period.
The primary efficacy variable was the change from baseline in the Total Nasal Symptom Score (TNSS), which comprised sneezing, itchy nose, runny nose, and nasal congestion (individual symptoms scores were assigned a value between 0 and 3, where 0=no symptoms and 3=severe symptoms). This study was not statistically designed to assess the differences between ASTELIN® and FLONASE®.
The results of the clinical trial are summarized and presented in Appendix A hereinbelow and in FIGS. 1-6. […] FIGS. 2-5 show the mean improvement in severity score (0-3 scale) from baseline for the symptoms of runny nose, itchy nose, sneezing and congestion, respectively.

## CN1CCCC(n2nc(Cc3ccc(Cl)cc3)c3ccccc3c2=O)CC1 (racemic) [Azelastine, (±)-1-(2H)-phthalazinone, 4-[(4-chlorophenyl)methyl]-2-(hexahydro-1-methyl-1H-azepin-4-yl)-, mono-hydrochloride]
Day 2
  Change from Baseline in AM and PM Combined Nasal Symptom Score: Congestion, LS Mean: −0.73
  Change from Baseline in AM and PM Combined Nasal Symptom Score: Congestion, Mean: −0.78
  Change from Baseline in AM and PM Combined Nasal Symptom Score: Congestion, Median: −0.17
  Change from Baseline in AM and PM Combined Nasal Symptom Score: Itchy Nose, LS Mean: −0.58
  Change from Baseline in AM and PM Combined Nasal Symptom Score: Itchy Nose, Mean: −0.61
  Change from Baseline in AM and PM Combined Nasal Symptom Score: Itchy Nose, Median: −0.50
  Change from Baseline in AM and PM Combined Nasal Symptom Score: Runny Nose, LS Mean: −0.70
  Change from Baseline in AM and PM Combined Nasal Symptom Score: Runny Nose, Mean: −0.72
  Change from Baseline in AM and PM Combined Nasal Symptom Score: Runny Nose, Median: −0.42
  Change from Baseline in AM and PM Combined Nasal Symptom Score: Sneezing, LS Mean: −1.09
  Change from Baseline in AM and PM Combined Nasal Symptom Score: Sneezing, Mean: −1.11
  Change from Baseline in AM and PM Combined Nasal Symptom Score: Sneezing, Median: −0.90
  Percent Change from Baseline in AM and PM Combined Nasal Symptom Score: Congestion, LS Mean: −13.19%
  Percent Change from Baseline in AM and PM Combined Nasal Symptom Score: Congestion, Mean: −14.05%
  Percent Change from Baseline in AM and PM Combined Nasal Symptom Score: Congestion, Median: −3.23%
  Percent Change from Baseline in AM and PM Combined Nasal Symptom Score: Itchy Nose, LS Mean: −13.14%
  Percent Change from Baseline in AM and PM Combined Nasal Symptom Score: Itchy Nose, Mean: −13.55%
  Percent Change from Baseline in AM and PM Combined Nasal Symptom Score: Itchy Nose, Median: −11.11%
  Percent Change from Baseline in AM and PM Combined Nasal Symptom Score: Runny Nose, LS Mean: −13.68%
  Percent Change from Baseline in AM and PM Combined Nasal Symptom Score: Runny Nose, Mean: −14.08%
  Percent Change from Baseline in AM and PM Combined Nasal Symptom Score: Runny Nose, Median: −7.98%
  Percent Change from Baseline in AM and PM Combined Nasal Symptom Score: Sneezing, LS Mean: −26.72%
  Percent Change from Baseline in AM and PM Combined Nasal Symptom Score: Sneezing, Mean: −26.94%
  Percent Change from Baseline in AM and PM Combined Nasal Symptom Score: Sneezing, Median: −21.05%
Day 3
  Change from Baseline in AM and PM Combined Nasal Symptom Score: Congestion, LS Mean: −0.62
  Change from Baseline in AM and PM Combined Nasal Symptom Score: Congestion, Mean: −0.68
  Change from Baseline in AM and PM Combined Nasal Symptom Score: Congestion, Median: 0.00
  Change from Baseline in AM and PM Combined Nasal Symptom Score: Itchy Nose, LS Mean: −0.85
  Change from Baseline in AM and PM Combined Nasal Symptom Score: Itchy Nose, Mean: −0.84
  Change from Baseline in AM and PM Combined Nasal Symptom Score: Itchy Nose, Median: −0.75
  Change from Baseline in AM and PM Combined Nasal Symptom Score: Runny Nose, LS Mean: −0.74
  Change from Baseline in AM and PM Combined Nasal Symptom Score: Runny Nose, Mean: −0.79
  Change from Baseline in AM and PM Combined Nasal Symptom Score: Runny Nose, Median: −1.00
  Change from Baseline in AM and PM Combined Nasal Symptom Score: Sneezing, LS Mean: −0.99
  Change from Baseline in AM and PM Combined Nasal Symptom Score: Sneezing, Mean: −0.97
  Change from Baseline in AM and PM Combined Nasal Symptom Score: Sneezing, Median: −0.77
  Percent Change from Baseline in AM and PM Combined Nasal Symptom Score: Congestion, LS Mean: −10.71%
  Percent Change from Baseline in AM and PM Combined Nasal Symptom Score: Congestion, Mean: −11.70%
  Percent Change from Baseline in AM and PM Combined Nasal Symptom Score: Congestion, Median: 0.00%
  Percent Change from Baseline in AM and PM Combined Nasal Symptom Score: Itchy Nose, LS Mean: −19.04%
  Percent Change from Baseline in AM and PM Combined Nasal Symptom Score: Itchy Nose, Mean: −18.60%
  Percent Change from Baseline in AM and PM Combined Nasal Symptom Score: Itchy Nose, Median: −16.67%
  Percent Change from Baseline in AM and PM Combined Nasal Symptom Score: Runny Nose, LS Mean: −13.72%
  Percent Change from Baseline in AM and PM Combined Nasal Symptom Score: Runny Nose, Mean: −14.69%
  Percent Change from Baseline in AM and PM Combined Nasal Symptom Score: Runny Nose, Median: −16.67%
  Percent Change from Baseline in AM and PM Combined Nasal Symptom Score: Sneezing, LS Mean: −23.56%
  Percent Change from Baseline in AM and PM Combined Nasal Symptom Score: Sneezing, Mean: −22.81%
  Percent Change from Baseline in AM and PM Combined Nasal Symptom Score: Sneezing, Median: −16.08%
Day 4
  Change from Baseline in AM and PM Combined Nasal Symptom Score: Congestion, LS Mean: −0.78
  Change from Baseline in AM and PM Combined Nasal Symptom Score: Congestion, Mean: −0.82
  Change from Baseline in AM and PM Combined Nasal Symptom Score: Congestion, Median: −0.92
  Change from Baseline in AM and PM Combined Nasal Symptom Score: Itchy Nose, LS Mean: −1.01
  Change from Baseline in AM and PM Combined Nasal Symptom Score: Itchy Nose, Mean: −1.00
  Change from Baseline in AM and PM Combined Nasal Symptom Score: Itchy Nose, Median: −0.73
  Change from Baseline in AM and PM Combined Nasal Symptom Score: Runny Nose, LS Mean: −0.76
  Change from Baseline in AM and PM Combined Nasal Symptom Score: Runny Nose, Mean: −0.79
  Change from Baseline in AM and PM Combined Nasal Symptom Score: Runny Nose, Median: −0.43
  Change from Baseline in AM and PM Combined Nasal Symptom Score: Sneezing, LS Mean: −1.34
  Change from Baseline in AM and PM Combined Nasal Symptom Score: Sneezing, Mean: −1.32
  Change from Baseline in AM and PM Combined Nasal Symptom Score: Sneezing, Median: −1.00
  Percent Change from Baseline in AM and PM Combined Nasal Symptom Score: Congestion, LS Mean: −13.79%
  Percent Change from Baseline in AM and PM Combined Nasal Symptom Score: Congestion, Mean: −14.44%
  Percent Change from Baseline in AM and PM Combined Nasal Symptom Score: Congestion, Median: −16.67%
  Percent Change from Baseline in AM and PM Combined Nasal Symptom Score: Itchy Nose, LS Mean: −22.54%
  Percent Change from Baseline in AM and PM Combined Nasal Symptom Score: Itchy Nose, Mean: −22.23%
  Percent Change from Baseline in AM and PM Combined Nasal Symptom Score: Itchy Nose, Median: −13.79%
  Percent Change from Baseline in AM and PM Combined Nasal Symptom Score: Runny Nose, LS Mean: −15.76%
  Percent Change from Baseline in AM and PM Combined Nasal Symptom Score: Runny Nose, Mean: −16.23%
  Percent Change from Baseline in AM and PM Combined Nasal Symptom Score: Runny Nose, Median: −7.98%
  Percent Change from Baseline in AM and PM Combined Nasal Symptom Score: Sneezing, LS Mean: −32.76%
  Percent Change from Baseline in AM and PM Combined Nasal Symptom Score: Sneezing, Mean: −31.90%
  Percent Change from Baseline in AM and PM Combined Nasal Symptom Score: Sneezing, Median: −25.00%
Day 5
  Change from Baseline in AM and PM Combined Nasal Symptom Score: Congestion, LS Mean: −1.02
  Change from Baseline in AM and PM Combined Nasal Symptom Score: Congestion, Mean: −1.07
  Change from Baseline in AM and PM Combined Nasal Symptom Score: Congestion, Median: −0.90
  Change from Baseline in AM and PM Combined Nasal Symptom Score: Itchy Nose, LS Mean: −1.11
  Change from Baseline in AM and PM Combined Nasal Symptom Score: Itchy Nose, Mean: −1.10
  Change from Baseline in AM and PM Combined Nasal Symptom Score: Itchy Nose, Median: −0.75
  Change from Baseline in AM and PM Combined Nasal Symptom Score: Runny Nose, LS Mean: −0.96
  Change from Baseline in AM and PM Combined Nasal Symptom Score: Runny Nose, Mean: −0.97
  Change from Baseline in AM and PM Combined Nasal Symptom Score: Runny Nose, Median: −0.67
  Change from Baseline in AM and PM Combined Nasal Symptom Score: Sneezing, LS Mean: −1.36
  Change from Baseline in AM and PM Combined Nasal Symptom Score: Sneezing, Mean: −1.34
  Change from Baseline in AM and PM Combined Nasal Symptom Score: Sneezing, Median: −1.03
